This is an account of results in patent publication US8772302B2, “GPR 119 agonists” (Cadila Healthcare Limited, priority 2009, dated 2014).

pEC50: −log10 of the molar value. Where two headings read alike, the source gives them in different places.

In assay [1] the target is T1, recombinant human GPR 119 receptor (Homo sapiens, UniProt Q8TDV5).
T1 construct: expressed in transfected cells
T1 sequence (Q8TDV5 1-335): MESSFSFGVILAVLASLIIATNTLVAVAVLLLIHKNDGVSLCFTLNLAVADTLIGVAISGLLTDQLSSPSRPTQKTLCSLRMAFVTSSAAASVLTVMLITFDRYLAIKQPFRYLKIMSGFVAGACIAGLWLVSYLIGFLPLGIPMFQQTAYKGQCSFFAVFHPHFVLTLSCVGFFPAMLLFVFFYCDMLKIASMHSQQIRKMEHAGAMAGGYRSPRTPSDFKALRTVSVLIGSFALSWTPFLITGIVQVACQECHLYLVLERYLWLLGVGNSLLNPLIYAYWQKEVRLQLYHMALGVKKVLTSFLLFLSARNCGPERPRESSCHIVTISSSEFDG
The experiment in a line: cAMP assay in stable cell line expressing recombinant human GPR 119 receptor. Type of assay: cell-based. Particulars: intracellular cAMP. The source says:
cAMP assay: A stable cell line expressing recombinant human GPR 119 receptor was established and used to investigate the efficacy of the compounds of the invention based on the intracellular levels of cyclic AMP (cAMP) using commercially available cAMP kits. Compounds of the invention produced a concentration dependent increase in cAMP level and EC50 values of representative compounds were provided in table 1.
(In general: cAMP levels reflect the balance of adenylyl cyclase and phosphodiesterase activity.)

Another assay relates to Sprague Dawley rats. The experiment in a line: Feed intake in Sprague Dawley rats. Particulars: Rattus norvegicus, cumulative feed intake vs vehicle; for inhibition in vivo at 25 mg/kg: ip, intraperitoneal; for inhibition in vivo at 50 mg/kg: oral. The format is in vivo, rat. The text has this: In Vivo Efficacy Studies: Feed Intake in Sprague Dawley Rats:
Sprague Dawley rats of 6-8 week age are used for this experiment they are kept for acclimatization in reversed light/dark cycle for 15 days. Animals will have free access to a standard chow diet and water during acclimatization period. After 15 days reversed light/dark cycle acclimatization animals are trained for fasting induced feed intake for 5 days till they show consistent feed intake. Grouping was done based on the monitored feed intake during the training days. On treatment day each group of animals are dosed with test compound or vehicle by appropriate routes of administration (orally or intraperitoneally). Exactly 30 min. after treatment, measured amount of standard chow diet is provided and recorded as O-min feed offered. Then subsequently 2, 4, 6 and 24 hour after O-min, feed intake is measured and the cumulative feed intakes are calculated. The change in cumulative feed intake as compared to vehicle treated control at each time point is calculated for test compound.

The next assay concerns C57/BL6 mice. The experiment in a line: Oral glucose tolerance test (OGTT) in C57/BL6 mice. Type of assay: in vivo, mouse. The note with it: Mus musculus, 2 h, serum glucose AUC, single oral dose, glucose load 3 gm/kg, read-out: % reduction in AUC at 50 mg/kg. The method, then:
Oral Glucose Tolerance Tests (OGTT) in C57/BL6 Mice:
C57/BL6 mice of 6-8 week age are used for this experiment. Animals are grouped based on non-fasting serum glucose levels and kept on fasting for overnight (day before OGTT). On the experiment day, […], 30 min post dosing animals are bled for basal glucose level estimation and at the same time glucose load (3 gm/kg) will be administered per orally. Blood is collected at time points corresponding to 20, 40, 60 and 120 min after glucose load administration. Serum is separated for determination of glucose levels and change in area under curve for glucose is calculated and provided in table 4 as % reduction in AUC.

Where [2] appears, read: 2 hour, read-out: % reduction in food in take, 2 hour.
The mark [3] stands for this setting: 4 hour, read-out: % reduction in food in take, 4 hour.
Where [4] appears, read: 6 hour, read-out: % reduction in food in take, 6 hour.
[5] abbreviates: 24 hour, read-out: % reduction in food in take, 24 hour.

`Cc1c(Oc2ccc([C@H]3CO[S@](=O)OC3)cc2)ncnc1OC1CCN(c2nc(C(C)C)no2)CC1` [Example 4, trans-5-(4-((6-((1-(3-isopropyl-1,2,4-oxadiazol-5-yl)piperidin-4-yl)oxy)-5-methylpyrimidin-4-yl)oxy)phenyl)-1,3,2-dioxathiane 2-oxide]: the pEC50 – broadly, the EC50 on a negative log10 scale, so that one unit is a factor of ten – in assay [1] was 7.96. Moreover, the inhibition in vivo at 25 mg/kg in the assay with Sprague Dawley rats (setting [2]) stood at 40%; in the assay with Sprague Dawley rats (setting [3]), 33%; in the assay on Sprague Dawley rats (setting [4]), 21%. The inhibition in vivo at 50 mg/kg in the assay with Sprague Dawley rats (setting [2]) came out at 30%; with Sprague Dawley rats (setting [3]) it was 24%; with Sprague Dawley rats (setting [4]) it was 9.5%; in the assay on Sprague Dawley rats (setting [5]), 6%; in the assay on C57/BL6 mice, 31%.

With `CCc1cnc(N2CCC(Oc3ncnc(Oc4ccc([C@H]5CO[S@](=O)OC5)cc4)c3C)CC2)nc1` [Example 10, trans-5-(4-((6-((1-(5-ethylpyrimidin-2-yl)piperidin-4-yl)oxy)-5-methylpyrimidin-4-yl)oxy)phenyl)-1,3,2-dioxathiane 2-oxide], in assay [1], the pEC50 is 7.13. In addition, the inhibition in vivo at 50 mg/kg in the assay on Sprague Dawley rats (setting [2]) was found to be 36%; in the assay with Sprague Dawley rats (setting [3]), 29%; with Sprague Dawley rats (setting [4]), 15%; in the assay on Sprague Dawley rats (setting [5]), 15%; in the assay with C57/BL6 mice, 29%.

Consider `Cc1c(Oc2ccc([C@H]3CO[S@](=O)OC3)cc2)ncnc1OC1CCN(C(=O)OC(C)(C)C)CC1` [Example 16, trans-tert-butyl 4-((5-methyl-6-(4-(2-oxido-1,3,2-dioxathian-5-yl)phenoxy)pyrimidin-4-yl)oxy)piperidine-1-carboxylate], for which the pEC50 in assay [1] was 7.82. Further, the inhibition in vivo at 25 mg/kg with Sprague Dawley rats (setting [2]) was determined as 21%; in the assay on Sprague Dawley rats (setting [3]), 27%; in the assay on Sprague Dawley rats (setting [4]), 10%. Moreover, the inhibition in vivo at 50 mg/kg in the assay on C57/BL6 mice worked out at 34%.

`CCc1cnc(N2CCC(Oc3ncnc(Oc4ccc([C@H]5CO[S@@](=O)OC5)cc4)c3C)CC2)nc1` [Example 9, cis-5-(4-((6-((1-(5-ethylpyrimidin-2-yl)piperidin-4-yl)oxy)-5-methylpyrimidin-4-yl)oxy)phenyl)-1,3,2-dioxathiane 2-oxide]: the pEC50 in assay [1] was 7.92. The inhibition in vivo at 25 mg/kg with Sprague Dawley rats (setting [2]) amounted to 44%; in the assay with Sprague Dawley rats (setting [3]) it was 37%; in the assay with Sprague Dawley rats (setting [4]), 30%; in the assay on Sprague Dawley rats (setting [5]), 24%. In addition, the inhibition in vivo at 50 mg/kg was 25% in the assay on Sprague Dawley rats (setting [2]); 12% with Sprague Dawley rats (setting [3]); 6% in the assay with Sprague Dawley rats (setting [4]); 2% in the assay on Sprague Dawley rats (setting [5]); 31% in the assay with C57/BL6 mice.

In the case of `Cc1c(Oc2ccc([C@H]3CO[S@@](=O)OC3)cc2)ncnc1OC1CCN(c2nc(C(C)C)no2)CC1` [Example 3, cis-5-(4-((6-((1-(3-isopropyl-1,2,4-oxadiazol-5-yl)piperidin-4-yl)oxy)-5-methylpyrimidin-4-yl)oxy)phenyl)-1,3,2-dioxathiane 2-oxide], in assay [1], the pEC50 is 7.89. In addition, the inhibition in vivo at 25 mg/kg worked out at 34% with Sprague Dawley rats (setting [2]), 25% with Sprague Dawley rats (setting [3]), 25% in the assay with Sprague Dawley rats (setting [4]) and 17% in the assay with Sprague Dawley rats (setting [5]). In the assay on C57/BL6 mice, the inhibition in vivo at 50 mg/kg was found to be 23%.

As to `Cc1c(Oc2ccc([C@H]3CO[S@@](=O)OC3)cc2)ncnc1OC1CCN(C(=O)OCC(C)C)CC1` [Example 27, cis-isobutyl 4-((5-methyl-6-(4-(2-oxido-1,3,2-dioxathian-5-yl)phenoxy)pyrimidin-4-yl)oxy)piperidine-1-carboxylate], in assay [1], the pEC50 was 7.57. The inhibition in vivo at 25 mg/kg in the assay on Sprague Dawley rats (setting [2]) amounted to 35%; with Sprague Dawley rats (setting [3]) it was 35%; in the assay on Sprague Dawley rats (setting [4]), 31%; with Sprague Dawley rats (setting [5]), 17%. For the same compound, the inhibition in vivo at 50 mg/kg in the assay with Sprague Dawley rats (setting [2]) amounted to 23%; in the assay with Sprague Dawley rats (setting [3]), 20%; in the assay with Sprague Dawley rats (setting [4]) it was 23%; in the assay with Sprague Dawley rats (setting [5]) it was 5%; in the assay on C57/BL6 mice, 30%.

As to `CCOC(=O)N1CCC(Oc2ncnc(Oc3ccc([C@H]4CO[S@](=O)OC4)cc3)c2C)CC1` [Example 34, trans-ethyl 4-((5-methyl-6-(4-(2-oxido-1,3,2-dioxathian-5-yl)phenoxy)pyrimidin-4-yl)oxy)piperidine-1-carboxylate], the pEC50 in assay [1] was 7.03. For the same compound, the inhibition in vivo at 25 mg/kg stood at 45% in the assay on Sprague Dawley rats (setting [2]), 30% in the assay on Sprague Dawley rats (setting [3]), 19% in the assay with Sprague Dawley rats (setting [4]) and 10% in the assay with Sprague Dawley rats (setting [5]). The inhibition in vivo at 50 mg/kg in the assay on C57/BL6 mice came to 27%.

In the case of `CCc1cnc(N2CCC(Oc3ncnc(Oc4ccc(C[C@H]5CO[S@](=O)OC5)cc4)c3C)CC2)nc1` [Example 32, trans-5-(4-((6-((1-(5-ethylpyrimidin-2-yl)piperidin-4-yl)oxy)-5-methylpyrimidin-4-yl)oxy)benzyl)-1,3,2-dioxathiane 2-oxide], in assay [1], the pEC50 was 7.07. Moreover, the inhibition in vivo at 25 mg/kg worked out at 50% in the assay on Sprague Dawley rats (setting [2]), 37% in the assay with Sprague Dawley rats (setting [3]), 32% in the assay with Sprague Dawley rats (setting [4]) and 18% in the assay on Sprague Dawley rats (setting [5]). The inhibition in vivo at 50 mg/kg in the assay on C57/BL6 mice is 41%.

On to `CC(C)c1noc(C2CCN(c3ncnc(Oc4ccc([C@H]5CO[S@@](=O)OC5)cc4)c3[N+](=O)[O-])CC2)n1` [Example 1, cis-5-(4-((6-(4-(3-isopropyl-1,2,4-oxadiazol-5-yl)piperidin-1-yl)-5-nitropyrimidin-4-yl)oxy)phenyl)-1,3,2-dioxathiane 2-oxide], for which, in assay [1], the pEC50 is 7.51. Further, the inhibition in vivo at 25 mg/kg with Sprague Dawley rats (setting [2]) came to 45%; with Sprague Dawley rats (setting [3]), 24%; in the assay with Sprague Dawley rats (setting [4]) it was 8.5%; in the assay on Sprague Dawley rats (setting [5]), 4%. For the same compound, the inhibition in vivo at 50 mg/kg in the assay with C57/BL6 mice came to 23%.

On to `CCOC(=O)N1CCC(Oc2ncnc(Oc3ccc([C@H]4CO[S@@](=O)OC4)cc3)c2C)CC1` [Example 33, cis-ethyl 4-((5-methyl-6-(4-(2-oxido-1,3,2-dioxathian-5-yl)phenoxy)pyrimidin-4-yl)oxy)piperidine-1-carboxylate], for which, in assay [1], the negative-log EC50 (pEC50) was 7.07. Moreover, the inhibition in vivo at 25 mg/kg in the assay on Sprague Dawley rats (setting [2]) was 70%; with Sprague Dawley rats (setting [3]) it was 44%; in the assay on Sprague Dawley rats (setting [4]), 24%; with Sprague Dawley rats (setting [5]), 21%. Moreover, in the assay with C57/BL6 mice, the inhibition in vivo at 50 mg/kg amounted to 30%.

Turning to `Cc1c(Oc2ccc(C[C@H]3CO[S@](=O)OC3)cc2)ncnc1OC1CCN(C(=O)OCC(C)C)CC1` [Example 44, trans-isobutyl 4-((5-methyl-6-(4-((2-oxido-1,3,2-dioxathian-5-yl)methyl)phenoxy)pyrimidin-4-yl)oxy)piperidine-1-carboxylate], the negative-log EC50 (pEC50) in assay [1] was 6.97. In addition, the inhibition in vivo at 50 mg/kg in the assay with Sprague Dawley rats (setting [2]) came to 38%; with Sprague Dawley rats (setting [3]) it was 30%; with Sprague Dawley rats (setting [4]), 24%; in the assay with Sprague Dawley rats (setting [5]) it was 7%; in the assay on C57/BL6 mice, 31%.
